# Results: US4345938A, “Herbicidal 2-haloacetanilides” (Monsanto Company, priority 1980, dated 1982)
# Read-outs that look alike come from different tables or passages of the source.
# Key:
# Format in all cases: in vivo
# [1] = tested on: Rice; experiment: Field transplant rice test, applied 0 DAT, rice injury; details: for inhibition at 375 g/ha / inhibition at 750 g/ha / inhibition at 1500 g/ha / inhibition at 3000 g/ha: Oryza sativa, 0 h, read-out: Percent Inhibition, Rice; for inhibition at 375 g/ha: 0.375 Kg/Ha; for inhibition at 750 g/ha: 0.75 Kg/Ha; for inhibition at 1500 g/ha: 1.5 Kg/Ha; for inhibition at 3000 g/ha: 3.0 Kg/Ha
# Procedure: (§1) In further comparative tests, a preferred compound of this invention (Example 1) was tested in the field with prior art Compounds A-D. These tests were conducted under conditions reflecting herbicide application times generally favorable to all herbicides in the test. The timing of application of herbicides to transplant rice is very important, whether, as in some instances, prior to transplanting the rice; in other instances, at the time of transplanting or else after transplanting. Application times are conventionally referred to as "days before transplant" (DBT) or "days after transplant" ("DAT"). The field test data in Table IV was obtained from a test in which the herbicides were applied at the time of transplant, i.e., "0 DAT", with observations being made weekly up to six weeks after transplant ("WAT") beginning at two weeks after transplant; for illustrative and representative purposes, only the early, middle and late period observations, i.e., 2 WAT, 4 WAT and 6 WAT, are shown in Table IV. The data in Table IV is for rates of application common to all herbicides in the test, i.e., from 3.0 kg/ha (2.67 lb/A) down to 0.375 kg/ha (0.34 lb/A). All herbicides were applied at their actual or expected use rates, i.e., as granules containing 2.5% by weight herbicide for the compound of Example 1, Compounds B, C and D and 5.0% by weight for Compound A.
# [2] = tested on: Cyperus serotinus; experiment: Field transplant rice test, applied 0 DAT, CS; details: 0 h, read-out: Percent Inhibition, CS; for inhibition at 375 g/ha: 0.375 Kg/Ha; for inhibition at 750 g/ha: 0.75 Kg/Ha; for inhibition at 1500 g/ha: 1.5 Kg/Ha; for inhibition at 3000 g/ha: 3.0 Kg/Ha
# Procedure: (§2) The test data in Table III for all compounds was obtained under identical test conditions. The weeds used in the tests herein have the following abbreviations in the tables: Echinochloa crus-galli (EC), Monochloria vaginalis (MV), Cyperus Serotinus (CS), Eleocharis Kuroguwai (EK) and Sagittaria trifolia (ST).
# as §1
# [3] = tested on: Sagittaria trifolia; experiment: Field transplant rice test, applied 0 DAT, ST; details: 0 h, read-out: Percent Inhibition, ST; for inhibition at 375 g/ha: 0.375 Kg/Ha; for inhibition at 750 g/ha: 0.75 Kg/Ha; for inhibition at 1500 g/ha: 1.5 Kg/Ha; for inhibition at 3000 g/ha: 3.0 Kg/Ha
# Procedure: as §2, §1
# [4] = tested on: Rice; experiment: Field transplant rice test, applied 9 DAT, rice injury; details: Oryza sativa, 216 h, read-out: Percent Inhibition, Rice; for inhibition at 375 g/ha: 0.375 Kg/Ha; for inhibition at 750 g/ha: 0.75 Kg/Ha; for inhibition at 1500 g/ha: 1.5 Kg/Ha; for inhibition at 3000 g/ha: 3.0 Kg/Ha
# Procedure: as §1
# (§3) In Table V are presented field data showing the relative performance of the compound of Example 1 and Compounds A-D applied 9 DAT, with observations being made weekly from 3 WAT to 7 WAT; again, for illustrative and representative purposes, only the early, middle and late period observations are reported in Table V, the herbicide rates and concentrations of active ingredients the same as is shown in Table IV.
# [5] = tested on: Cyperus serotinus; experiment: Field transplant rice test, applied 9 DAT, CS; details: for inhibition at 375 g/ha / inhibition at 750 g/ha / inhibition at 1500 g/ha / inhibition at 3000 g/ha: Cyperus serotinus, 216 h, read-out: Percent Inhibition, CS; for inhibition at 375 g/ha: 0.375 Kg/Ha; for inhibition at 750 g/ha: 0.75 Kg/Ha; for inhibition at 1500 g/ha: 1.5 Kg/Ha; for inhibition at 3000 g/ha: 3.0 Kg/Ha
# Text: In the discussion of data below, occasional reference is made to herbicide application rates symbolized as "GR15 " and "GR85 "; these rates are given in kilograms per hectare (kg/ha) which are convertible into pounds per acre (lbs/A) by dividing the kg/ha rate by 1.12.
# A further guide to the effectiveness of a chemical as a selective herbicide is the "selectivity factor" ("SF") for a herbicide in given crops and weeds. The selectivity factor is a measure of the relative degree of crop safety and weed injury and is expressed in terms of the GR15 /GR85 ratio, i.e., the GR15 rate for the crop divided by the GR85 rate for the weed, both rates in kg/ha (lb/A.)
# as §2, §1, §3
smiles,measurement,setting,value
"CCCCOCN(C(=O)CCl)c1c(C)cccc1C(C)(C)C [Compound C, 2'-methyl-6'-tert-butyl-N-(n-butoxymethyl)-2-chloroacetanilide]",injury rate in rice,"[1]; 1.5 kg/ha (1.34 lb/A), after 4 WAT",greater than 15%
same,inhibition at 375 g/ha,[1]; 2 WAT,3%
same,inhibition at 375 g/ha,[1]; 4 WAT,0%
same,inhibition at 375 g/ha,[1]; 6 WAT,0%
same,inhibition at 750 g/ha,[1]; 2 WAT,2%
same,inhibition at 750 g/ha,[1]; 4 WAT,2%
same,inhibition at 750 g/ha,[1]; 6 WAT,2%
same,inhibition at 1500 g/ha,[1]; 2 WAT,12%
same,inhibition at 1500 g/ha,[1]; 4 WAT,18%
same,inhibition at 1500 g/ha,[1]; 6 WAT,18%
same,inhibition at 3000 g/ha,[1]; 2 WAT,22%
same,inhibition at 3000 g/ha,[1]; 4 WAT,27%
same,inhibition at 3000 g/ha,[1]; 6 WAT,30%
same,inhibition at 375 g/ha,[2]; 2 WAT,93%
same,inhibition at 375 g/ha,[2]; 4 WAT,92%
same,inhibition at 375 g/ha,[2]; 6 WAT,72%
same,inhibition at 750 g/ha,[2]; 2 WAT,70%
same,inhibition at 750 g/ha,[2]; 4 WAT,82%
same,inhibition at 750 g/ha,[2]; 6 WAT,77%
same,inhibition at 1500 g/ha,[2]; 2 WAT,93%
same,inhibition at 1500 g/ha,[2]; 4 WAT,99%
same,inhibition at 1500 g/ha,[2]; 6 WAT,100%
same,inhibition at 3000 g/ha,[2]; 2 WAT,95%
same,inhibition at 3000 g/ha,[2]; 4 WAT,100%
same,inhibition at 3000 g/ha,[2]; 6 WAT,100%
same,inhibition at 375 g/ha,[3]; 2 WAT,30%
same,inhibition at 375 g/ha,[3]; 4 WAT,5%
same,inhibition at 375 g/ha,[3]; 6 WAT,0%
same,inhibition at 750 g/ha,[3]; 2 WAT,33%
same,inhibition at 750 g/ha,[3]; 4 WAT,18%
same,inhibition at 750 g/ha,[3]; 6 WAT,8%
same,inhibition at 1500 g/ha,[3]; 2 WAT,38%
same,inhibition at 1500 g/ha,[3]; 4 WAT,30%
same,inhibition at 1500 g/ha,[3]; 6 WAT,17%
same,inhibition at 3000 g/ha,[3]; 2 WAT,53%
same,inhibition at 3000 g/ha,[3]; 4 WAT,35%
same,inhibition at 3000 g/ha,[3]; 6 WAT,18%
same,inhibition at 375 g/ha,[4]; 3 WAT,17%
same,inhibition at 375 g/ha,[4]; 5 WAT,8%
same,inhibition at 375 g/ha,[4]; 7 WAT,10%
same,inhibition at 750 g/ha,[4]; 3 WAT,10%
same,inhibition at 750 g/ha,[4]; 5 WAT,7%
same,inhibition at 750 g/ha,[4]; 7 WAT,8%
same,inhibition at 1500 g/ha,[4]; 3 WAT,18%
same,inhibition at 1500 g/ha,[4]; 5 WAT,15%
same,inhibition at 1500 g/ha,[4]; 7 WAT,13%
same,inhibition at 3000 g/ha,[4]; 3 WAT,10%
same,inhibition at 3000 g/ha,[4]; 5 WAT,5%
same,inhibition at 3000 g/ha,[4]; 7 WAT,8%
same,inhibition at 375 g/ha,[5]; 3 WAT,58%
same,inhibition at 375 g/ha,[5]; 5 WAT,60%
same,inhibition at 375 g/ha,[5]; 7 WAT,43%
same,inhibition at 750 g/ha,[5]; 3 WAT,93%
same,inhibition at 750 g/ha,[5]; 5 WAT,93%
same,inhibition at 750 g/ha,[5]; 7 WAT,82%
same,inhibition at 1500 g/ha,[5]; 3 WAT,62%
same,inhibition at 1500 g/ha,[5]; 5 WAT,87%
same,inhibition at 1500 g/ha,[5]; 7 WAT,83%
same,inhibition at 3000 g/ha,[5]; 3 WAT,95%
same,inhibition at 3000 g/ha,[5]; 5 WAT,100%
same,inhibition at 3000 g/ha,[5]; 7 WAT,100%
same,"selectivity factor (GR15/GR85), CS in transplant rice",[5]; between 3 WAT and 7 WAT,4
